Experimental data reported in article PMC4891694, “Insights into the role of sulfated glycans in cancer cell adhesion and migration through use of branched peptide probe” (Scientific Reports, 2016).

Key:
breast cancer in mice = conditions: orthotopic breast cancer, versus unconjugated paclitaxel; cited from earlier work
[1] = system: NT4 binding to membrane receptors on PANC-1 cells; test: Flow cytometry, inhibition of NT4 binding to PANC-1 cells by GAGs; format: cell-based, human; conditions: 1 μM biotinylated NT4, 100 μg/ml GAGs, PBS with 5 mM EDTA and 0.5% BSA, Streptavidin-FITC
[2] = system: NT4 binding to PgsA-745 cells; test: Flow cytometry, inhibition of NT4 binding to PgsA-745 cells by heparin; format: cell-based, Chinese hamster; conditions: 1 μM biotinylated NT4, 100 μg/ml heparin
Procedure: PANC-1 human pancreas adenocarcinoma, CHO-K1 Chinese hamster ovary cell and PgsA-745 Chinese hamster ovary cell mutant deficient in xylosyltransferase (UDP-D-xylose: serine-1,3-D-xylosyltransferase) were grown in DMEM Medium (for PANC-1 and CHO-K1) and F12 K Medium supplemented with 10% fetal bovine serum, 200 μg/ml glutamine, 100 μg/ml streptomycin and 60 μg/ml penicillin. Cell lines were purchased from ATCC (The Global Bioresource Center).
All experiments were performed using 1 × 10^5 PANC-1, CHO-K1 or PgsA-745 cells in 96-well U-bottom plates. […] Cells were finally incubated with 1 μg/ml Streptavidin-FITC. All dilutions were performed in PBS, containing 5 mM EDTA and 0.5% BSA.
10000 events were analyzed in a BD FACS Calibur (Becton Dickinson, NJ USA). Results were analyzed by FCS Express 4 Plus software.

[3] = system: NT4 binding to endocytic receptors; set-up: method as in PMID 23713525; conditions: cited from earlier work
[4] = system: cancer cell lines and human cancer surgical samples; set-up: method as in 2 sources, one per row (each row's own in cited_ref): ref 1-6 = [1]; PMID 17766836; doi:10.1158/1535-7163.MCT-07-0164; Falciani C. et al. Synthesis and biological activity of stable branched neurotensin peptides for tumor targeting . Mol. Cancer Ther. 6 , 2441 − 2448 ( 2007 ). 17766836 10.1158/1535-7163.MCT-07-0164 || [2]; PMID 20222099; doi:10.1002/cmdc.200900527; Falciani C. et al. Design and in vitro evaluation of branched peptide conjugates: turning nonspecific cytotoxic drugs into tumor-selective agents . ChemMedChem. 5 , 567 − 574 ( 2010 ). 20222099 10.100 || [3]; PMID 20578987; doi:10.2174/156800910793605875; Falciani C. et al. Modular branched neurotensin peptides for tumor target tracing and receptor-mediated therapy: a proof-of-concept . Curr. Cancer Drug Targets. 10 , 695 − 704 ( 2010 ). 20578987 10.21 || [4]; PMID 21370475; doi:10.1002/cmdc.201000463; Falciani C. et al. Target-selective drug delivery through liposomes labeled with oligobranched neurotensin peptides . ChemMedChem. 6 , 678 − 685 ( 2011 ). 21370475 10.1002/cmdc.201000463 || [5]; PMID 25984525; doi:10.1155/2015/173507; Brunetti J. et al. Neurotensin branched Peptide as a tumor-targeting agent for human bladder cancer . Biomed Res Int. 2015 , 173507 , doi: 10.1155/2015/173507 ( 2015 ). 25984525 PMC4423026 ||| ref 7 = [7]; PMID 23713525; doi:10.1021/jm400329p; Falciani C. et al. Cancer selectivity of tetrabranched neurotensin peptides is generated by simultaneous binding to sulfated glycosaminoglycans and protein receptors . J Med Chem. 56 , 5009 – 18 ( 201); conditions: compared with NT4; cited from earlier work

For `CC(=O)O[C@H]1C(=O)[C@@]2(C)[C@H]([C@H](OC(=O)c3ccccc3)[C@]3(O)C[C@H](OC(=O)[C@H](O)[C@@H](NC(=O)c4ccccc4)c4ccccc4)C(C)=C1C3(C)C)[C@]1(OC(C)=O)CO[C@@H]1C[C@@H]2O` [unconjugated paclitaxel, paclitaxel], the tumor regression (breast cancer in mice) is listed as “not achieved with unconjugated paclitaxel”.

For hyaluronic acid, the “inhibition of NT4 binding (in words)” value [1] was “neither binding to NT4 or inhibition of NT4 binding to cancer cell membranes was detected”.

For heparin, the “inhibition of NT4 binding to PgsA-745 cells” value [2] is given as “still completely inhibited by heparin”, the “inhibition of NT4 binding (in words)” value [1] is given as “complete inhibition” and the “inhibition of NT4 binding to endocytic receptors” value [3] is given as “completely inhibited by heparin”.

In the case of “native neurotensin: monomeric native neurotensin”, the high cancer selectivity [4] is listed as “not shared by monomeric native neurotensin”.
